Source: patent US11707539B2, “FAP-targeted radiopharmaceuticals and imaging agents, and uses related thereto” (Trustees of Tufts College, priority 2020, dated 2023)
“And” between values parts separate entries of the source, which are not always exact repeats. Equal values may be shown once. Read-outs that look alike come from different tables or passages of the source. Where a SMILES comes first, the peptide text is derived from it.

Experiments:
Assay type in all cases: biochemical
[1] = target: recombinant human fibroblast activation protein (FAP) (Homo sapiens (Human), UniProt Q12884); experiment: In vitro IC50 assay, fibroblast activation protein (Example 15)
Chain of recombinant human fibroblast activation protein (FAP) (Q12884 whole entry): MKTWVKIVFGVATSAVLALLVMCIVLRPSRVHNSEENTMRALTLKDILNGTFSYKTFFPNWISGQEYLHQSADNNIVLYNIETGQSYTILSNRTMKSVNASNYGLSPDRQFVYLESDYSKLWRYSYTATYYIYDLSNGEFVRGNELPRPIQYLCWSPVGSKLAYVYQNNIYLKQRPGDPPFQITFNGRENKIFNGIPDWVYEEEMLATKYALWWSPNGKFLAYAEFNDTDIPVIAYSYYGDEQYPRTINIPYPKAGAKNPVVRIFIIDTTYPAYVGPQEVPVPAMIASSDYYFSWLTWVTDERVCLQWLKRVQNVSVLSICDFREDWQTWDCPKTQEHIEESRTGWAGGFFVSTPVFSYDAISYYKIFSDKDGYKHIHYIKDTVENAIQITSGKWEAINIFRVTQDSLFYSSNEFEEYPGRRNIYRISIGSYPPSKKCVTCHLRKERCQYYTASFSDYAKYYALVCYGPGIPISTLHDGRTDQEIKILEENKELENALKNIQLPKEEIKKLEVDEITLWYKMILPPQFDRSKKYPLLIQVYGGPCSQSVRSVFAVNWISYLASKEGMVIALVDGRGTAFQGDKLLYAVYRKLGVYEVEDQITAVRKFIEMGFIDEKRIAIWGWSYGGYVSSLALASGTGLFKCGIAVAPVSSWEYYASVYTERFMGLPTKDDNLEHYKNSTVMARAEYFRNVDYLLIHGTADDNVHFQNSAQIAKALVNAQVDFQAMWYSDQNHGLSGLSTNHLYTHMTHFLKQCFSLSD
Description: (§1) The purpose of this assay is to determine the IC50 of various inhibitors against recombinant human dipeptidyl peptidase IV (DPPIV), fibroblast activation protein (FAP) or prolyl oligopeptidase (PREP).
(§2) The assays are conducted in the following steps: • 1 Dissolve the compound in DMSO to a final concentration of 100 mM. From this, prepare a 1 mM stock at pH 7.5 in 50 mM Tris, 140 mM NaCl Buffer (FAP)/pH 7.5 in 25 mM Tris, 250 mM NaCl Buffer/pH 8.0 140 mM NaCl Buffer (PREP). • 2. Serial dilute (1:10) the 1 mM compound stocks prepared previously into the appropriate assay buffer (FAP: 50 mM Tris, 140 mM NaCl, pH 7.5/PREP: 25 mM Tris, 0.25 M NaCl, pH 7.5/DPPIV: 25 mM Tris, pH 8.0) to one row of a 96-well plate. • 3. […] Dilute the enzymes into their appropriate assay buffers. The final enzyme concentrations should be 0.1, 1.2, and 0.6 nM for DPPIV, FAP and PREP respectively. Add 180 μL to each well needed in columns 2-10. Column 1 (A,B,C) should be prepared with 200 ul of appropriate assay buffer as control. Column 1 (D,E,F,G,H) should be prepared with 20 ul of appropriate assay buffer and 180 ul enzyme as no inhibitor control. • 5. Add 20 μL of the compound of interest from the dilution plate prepared in step 2 to columns 2-10 of the assay plate where appropriate. Each sample should be tested in triplicate. Allow this to incubate for 10 minutes at room temperature, shaking the plate for the first two minutes. • 6. Add 10 μL of 20× substrate prepared in step 3 to each well and allow this to incubate for 15 minutes at room temperature, shaking the plate for the first two minutes. • 7. Read the fluorescence at λex: 380, λem: 460. (DPcore=[dAla|dSerGly]-[boroPro|Pro-nitrile], XXaa=alpha-amino acid)

[2] = target: recombinant human dipeptidyl peptidase IV (DPPIV) (Homo sapiens (Human), UniProt P27487); experiment: In vitro IC50 assay, dipeptidyl peptidase IV (Example 15); conditions: Gly-Pro-AMC, room temperature
Chain of recombinant human dipeptidyl peptidase IV (DPPIV) (P27487 whole entry): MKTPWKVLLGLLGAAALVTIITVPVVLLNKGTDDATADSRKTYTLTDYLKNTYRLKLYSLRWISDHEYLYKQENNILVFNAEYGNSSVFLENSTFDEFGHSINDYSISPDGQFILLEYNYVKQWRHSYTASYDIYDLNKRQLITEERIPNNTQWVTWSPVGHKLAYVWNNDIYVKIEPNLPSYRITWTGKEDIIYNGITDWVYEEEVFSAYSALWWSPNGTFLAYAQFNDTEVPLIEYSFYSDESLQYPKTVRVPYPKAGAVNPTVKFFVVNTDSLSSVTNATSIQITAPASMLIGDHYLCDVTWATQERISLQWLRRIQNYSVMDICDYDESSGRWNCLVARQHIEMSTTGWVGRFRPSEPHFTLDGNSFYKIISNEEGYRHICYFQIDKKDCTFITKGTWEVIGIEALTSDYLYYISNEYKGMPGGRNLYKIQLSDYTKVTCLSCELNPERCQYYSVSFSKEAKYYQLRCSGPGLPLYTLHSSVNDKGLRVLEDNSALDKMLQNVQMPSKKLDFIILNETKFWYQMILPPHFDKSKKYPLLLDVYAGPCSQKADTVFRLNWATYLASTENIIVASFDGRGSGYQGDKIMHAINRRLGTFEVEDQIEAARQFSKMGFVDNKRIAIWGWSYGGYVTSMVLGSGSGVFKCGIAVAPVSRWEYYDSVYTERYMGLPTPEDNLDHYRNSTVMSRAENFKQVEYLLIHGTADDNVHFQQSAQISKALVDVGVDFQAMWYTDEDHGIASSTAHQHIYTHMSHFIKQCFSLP
Description: as §1, §2

[3] = target: recombinant human prolyl oligopeptidase (PREP) (Homo sapiens (Human), UniProt P48147); experiment: In vitro IC50 assay, prolyl oligopeptidase (Example 15)
Chain of recombinant human prolyl oligopeptidase (PREP) (P48147 whole entry): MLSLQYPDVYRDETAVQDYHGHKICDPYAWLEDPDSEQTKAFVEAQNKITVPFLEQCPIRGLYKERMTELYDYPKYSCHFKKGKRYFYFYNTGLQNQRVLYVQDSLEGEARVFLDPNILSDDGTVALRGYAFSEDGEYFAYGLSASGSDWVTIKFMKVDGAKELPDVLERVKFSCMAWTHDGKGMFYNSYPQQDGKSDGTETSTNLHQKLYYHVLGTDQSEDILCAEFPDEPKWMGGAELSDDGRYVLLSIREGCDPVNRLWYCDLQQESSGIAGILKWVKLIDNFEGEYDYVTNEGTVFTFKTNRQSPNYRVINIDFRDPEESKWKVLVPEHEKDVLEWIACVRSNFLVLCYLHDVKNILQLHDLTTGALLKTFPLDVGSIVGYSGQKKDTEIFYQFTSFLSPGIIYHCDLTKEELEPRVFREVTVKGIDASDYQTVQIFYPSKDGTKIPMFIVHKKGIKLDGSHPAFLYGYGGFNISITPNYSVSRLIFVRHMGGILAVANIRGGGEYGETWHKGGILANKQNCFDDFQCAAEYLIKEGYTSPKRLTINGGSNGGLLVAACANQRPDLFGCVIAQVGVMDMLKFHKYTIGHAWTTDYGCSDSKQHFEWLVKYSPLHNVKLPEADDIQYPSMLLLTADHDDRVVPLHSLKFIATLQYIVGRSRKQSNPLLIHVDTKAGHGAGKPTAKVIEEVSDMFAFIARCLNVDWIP
Description: as §1, §2

[4] = Z-Gly-Pro-AMC, room temperature, read-out: FAP IC50
[5] = Z-Gly-Pro-AMC, room temperature, read-out: PREP IC50

| Compound | IC50 [1] [nM] | IC50 [1, 4] | IC50 [2] [nM] | IC50 [3] [nM] | IC50 [3, 5] [nM] |
| --- | --- | --- | --- | --- | --- |
| CC(C)[C@H](NC(=O)CNC(=O)CNC(=O)CNC(=O)CCC(C(=O)O)N1CCN(CC(=O)O)CCN(CC(=O)O)CCN(CC(=O)O)CC1)C(=O)N[C@H](C)C(=O)N1CCC[C@H]1B(O)O (mixture of isomers) [Compound 6808, (R/S)-DOTAGA-(Gly)3-Val-Dala-boroPro] | 11.5 | – | – | – | – |
| CC(C)[C@H](NC(=O)CN1CCN2CCN(CC(=O)O)CCN(CC1)CC(=O)[O][Cu][O]C(=O)C2)C(=O)N[C@H](C)C(=O)N1CCC[C@H]1B(O)O (stereo in doubt) [Compound 6508CU, DOTA[(Cu(II)]-Val-D-Ala-boroPro] | – | 26.2 nM | – | – | – |
| C[C@@H](NC(=O)c1ccc(NN)nc1)C(=O)N1CCC[C@H]1B(O)O [Compound 3860, N-(6-hydrazinylnicotincarbonyl)-D-AlaboroPro] | – | – | > 100000 | – | – |
| C[C@@H](NC(=O)CN1CCN(CC(=O)O)CCN(CC(=O)O)CCN(CC(=O)O)CC1)C(=O)N1CCC[C@H]1B(O)O [Compound 4535, DOTA-D-ala-boroPro] | 33 | – | – | 10000 | > 10000 |
| C[C@@H](NC(=O)CN1CCN2CCN3CCN(CC1)CC(=O)[O][Gd]([O]C(=O)C2)[O]C(=O)C3)C(=O)N1CCC[C@H]1B(O)O [Compound 4535GD, DOTA[(Gd(III)]-D-alaboroPro] | – | 760 nM | – | – | > 10000 |
| C[C@@H](NC(=O)c1ccc(NNC(=O)CN2CCN3CCN4CCN(CC2)CC(=O)[O][Gd]([O]C(=O)C3)[O]C(=O)C4)nc1)C(=O)N1CCC[C@H]1B(O)O [Compound 4536GD] | – | – | > 100000 | – | > 100000 |
| C[C@@H](NC(=O)c1ccc(NNC(=O)CN2CCN(CC(=O)O)CCN(CC(=O)O)CCN(CC(=O)O)CC2)nc1)C(=O)N1CCC[C@H]1B(O)O [Compound 4536] | – | – | – | – | 750 |
| C[C@@H](NC(=O)c1ccc(NNC(=O)CCCCCC2=C(/C=C/C3=C(Oc4ccc(S(=O)(=O)O)cc4)C(=C/C=C4/N(CCCCS(=O)(=O)O)c5ccc(S(=O)(=O)O)cc5C4(C)C)/CCC3)C(C)(C)c3cc(S(=O)(=O)O)ccc32)nc1)C(=O)N1CCC[C@H]1B(O)O [Compound 4613B, IRDye800CW-3860] | – | 8.8 nM and 10 nM | > 100000 | – | 390 |
| C[C@@H](NC(=O)c1ccc(NNC(=O)CCCCCC2=C(/C=C/C3=C(Oc4ccc(S(=O)(=O)O)cc4)C(=C/C=C4/N(CCCCS(=O)(=O)O)c5ccc(S(=O)(=O)O)cc5C4(C)C)/CCC3)C(C)(C)c3cc(S(=O)(=O)O)ccc32)cc1)C(=O)N1CCC[C@H]1B(O)O [Compound 4613C, IRDye 800CW-3860B] | – | 1.7 nM | – | – | 610 |
| C[C@@H](NC(=O)c1ccc(NNC(=O)CN2CCN3CCN4CCN(CC2)CC(=O)[O][Ga]([O]C(=O)C3)[O]C(=O)C4)cc1)C(=O)N1CCC[C@H]1B(O)O [Compound 5183GA] | – | 46.1 nM | – | – | – |
| C[C@@H](NC(=O)c1ccc(NNC(=O)CCCCCNC(=O)CN2CCN3CCN4CCN(CC2)CC(=O)[O][Ga]([O]C(=O)C3)[O]C(=O)C4)cc1)C(=O)N1CCC[C@H]1B(O)O [Compound 6486GA] | – | 81 nM | > 100000 | – | 4700 |
| C[C@@H](NC(=O)c1ccc(NNC(=O)CCCNC(=O)CN2CCN3CCN4CCN(CC2)CC(=O)[O][Ga]([O]C(=O)C3)[O]C(=O)C4)cc1)C(=O)N1CCC[C@H]1B(O)O [Compound 6489GA] | – | 39 nM | > 100000 | – | 3400 |
| C[C@@H](NC(=O)[C@H](CO)NC(=O)CN1CCN(CC(=O)O)CCN(CC(=O)O)CCN(CC(=O)O)CC1)C(=O)N1CCC[C@H]1B(O)O [Compound 6509, DOTA-Ser-D-Ala-boroPro] | – | 186 nM | – | – | – |
| C[C@H](NC(=O)CN1CCN2CCN3CCN(CC1)CC(=O)[O][Gd]([O]C(=O)C2)[O]C(=O)C3)C(=O)N[C@H](C)C(=O)N1CCC[C@H]1B(O)O [Compound 6511Gd, DOTA[(Gd(III)]-Ala-D-Ala-boroPro] | – | 428 nM | – | – | – |
| CC(C)[C@H](NC(=O)CNC(=O)CNC(=O)CN1CCN2CCN3CCN(CC1)CC(=O)[O][Ga]([O]C(=O)C2)[O]C(=O)C3)C(=O)N[C@H](C)C(=O)N1CCC[C@H]1B(O)O [Compound 6522GA-02, DOTA(Ga)-Gly-Gly-Val-D-alaboroPro] (HELM PEPTIDE1{[O=C1CN2CCN3CCN(CC(=O)[*:2])CCN(CC2)CC(=O)[O][Ga]([O]1)[O]C(=O)C3].G.G.V.[dA].[OB(O)[C@@H]1CCCN1[*:1]]}$$$$V2.0) | – | 575 nM | > 100000 | – | 19000 |
| CC(C)[C@H](NC(=O)CNC(=O)CNC(=O)CN1CCN(CC(=O)O)CCN(CC(=O)O)CCN(CC(=O)O)CC1)C(=O)N[C@H](C)C(=O)N1CCC[C@H]1B(O)O [Compound 6522L, DOTA-Gly-Gly-Val-alaboroPro(L-ala)] (HELM PEPTIDE1{[O=C(O)CN1CCN(CC(=O)O)CCN(CC(=O)[*:2])CCN(CC(=O)O)CC1].G.G.V.[dA].[OB(O)[C@@H]1CCCN1[*:1]]}$$$$V2.0) | > 100000 | – | 3400 | – | 7.6 |
| CC(C)[C@H](NC(=O)CNC(=O)CNC(=O)CN1CCN2CCN3CCN(CC1)CC(=O)[O][Lu]([O]C(=O)C2)[O]C(=O)C3)C(=O)N[C@H](C)C(=O)N1CCC[C@H]1B(O)O [Compound 6522LU, DOTA(Lu)-Gly-Gly-Val-D-ala-boroPro] (HELM PEPTIDE1{[O=C1CN2CCN3CCN(CC(=O)[*:2])CCN(CC2)CC(=O)[O][Lu]([O]1)[O]C(=O)C3].G.G.V.[dA].[OB(O)[C@@H]1CCCN1[*:1]]}$$$$V2.0) | – | 26 nM | > 100000 | – | 19000 |
| CC(C)[C@H](NC(=O)CNC(=O)CNC(=O)CN1CCN(CC(=O)O)CCN(CC(=O)O)CCN(CC(=O)O)CC1)C(=O)N[C@H](C)C(=O)N1CCCC1B1OC(=O)CN(C)CC(=O)O1 (stereo partly drawn) [Compound 6522M, DOTA-Gly-Gly-Val-D-alaboroPro-MIDA] (HELM PEPTIDE1{[O=C(O)CN1CCN(CC(=O)O)CCN(CC(=O)[*:2])CCN(CC(=O)O)CC1].G.G.V.[dA].[CN1CC(=O)OB(C2CCCN2[*:1])OC(=O)C1]}$$$$V2.0) | – | 280 nM | – | – | – |
| C[C@@H](NC(=O)c1ccc(NC(=O)CCCCNC(=O)CN2CCN3CCN4CCN(CC2)CC(=O)[O][Lu]([O]C(=O)C3)[O]C(=O)C4)cc1)C(=O)N1CCC[C@H]1B(O)O [Compound 6590LU] | – | 0.4 nM | – | – | – |
| C[C@@H](NC(=O)c1ccc(NNC(=O)CCCNC(=O)CN2CCN3CCN4CCN(CC2)CC(=O)[O][Lu]([O]C(=O)C3)[O]C(=O)C4)nc1)C(=O)N1CCC[C@H]1B(O)O [Compound 6609LU] | – | 1 nM | – | – | 60 |
| CC(C)[C@H](NC(=O)CNC(=O)CC[C@H](C(=O)O)N1CCN(CC(=O)O)CCN(CC(=O)O)CCN(CC(=O)O)CC1)C(=O)N[C@H](C)C(=O)N1CCC[C@H]1B(O)O [Compound 6795D, (R)-DOTAGA-Gly-Val-D-ala-boroPro] | – | – | > 100000 | – | – |
| CC(C)[C@H](NC(=O)CNC(=O)CC[C@@H]1C(=O)[O][Lu]23[O]C(=O)CN4CCN(CCN1CCN(CC4)CC(=O)[O]2)CC(=O)[O]3)C(=O)N[C@H](C)C(=O)N1CCC[C@H]1B(O)O [Compound 6795DLU, (R)-DOTAGA(Lu)-Gly-Val-Dala-boroPro] | – | – | > 100000 | – | – |
| CC(C)[C@H](NC(=O)CNC(=O)CC[C@H]1C(=O)[O][Lu]23[O]C(=O)CN4CCN(CCN1CCN(CC4)CC(=O)[O]2)CC(=O)[O]3)C(=O)N[C@H](C)C(=O)N1CCC[C@H]1B(O)O [Compound 6795LLU, (S)-DOTAGA-Gly-Val-Dala-boroPro (6795L-Lu Complex)] | 20.1 | – | – | 6390 | – |
| CC(C)[C@H](NC(=O)CNC(=O)CNC(=O)CNC(=O)CNC(=O)CN1CCN(CC(=O)O)CCN(CC(=O)O)CCN(CC(=O)O)CC1)C(=O)N[C@H](C)C(=O)N1CCC[C@H]1B(O)O [Compound 6839, DOTA-(Gly)4-Val-D-ala-boroPro] (HELM PEPTIDE1{[O=C(O)CN1CCN(CC(=O)O)CCN(CC(=O)[*:2])CCN(CC(=O)O)CC1].G.G.G.G.V.[dA].[OB(O)[C@@H]1CCCN1[*:1]]}$$$$V2.0) | – | 21 nM | – | – | – |
| C[C@@H](NC(=O)c1ccc(NNC(=O)CCCCCNC(=O)CN2CCN3CCN4CCN(CC2)CC(=O)[O][Lu]([O]C(=O)C3)[O]C(=O)C4)nc1)C(=O)N1CCC[C@H]1B(O)O [Compound 6958LU] | – | 1.1 nM | – | – | 155 |
| (R)-DOTAGA(Ga)-(Gly)3-Val-Dala-boroPro [Compound 6808DGA] | – | 89 nM | – | – | – |
| (R)-DOTAGA(Ga)-Gly-Val-Dala-boroPro [Compound 6795DGA] | – | 310 nM | > 100000 | – | 9400 |
